Experiment [1] deals with Full length PgDPP III (1–886 aa). Type of experiment: biochemical, Porphyromonas gingivalis. The settings on record: for kcat/Km: full length, pH 8.0, 100 μM CoCl2, enzyme 0.5–1 nM; for kcat/Km of PgDPP III, fold lower than human DPP III: human DPP III data ref 70.
Experiment [2] has as its system DPP III fragment (1–679 aa). Nature of the experiment: Kinetic analysis / specific activity of the DPP III fragment. In kind it is biochemical, Porphyromonas gingivalis. The settings on record: for kcat/Km: DPP III fragment, pH 8.0, 100 μM CoCl2, enzyme 40–100 nM; for kcat/Km / Km / kcat: 26°C; for Km / kcat: fluorimetric, pH 8.0 Tris-HCl (ionic strength 0.01M), 100 μM CoCl2, enzyme 40–100 nM, mean of at least two independent experiments ± SD.

The subject of experiment [3] is gingipain null-mutant KDP136 cells. Conditions: compared to wild-type P. gingivalis ATCC 33277; cited from earlier work. The source says:
(§1) Dipeptidyl peptidases of P. gingivalis have been the subject of extensive research because these exopeptidases liberate dipeptides from the amino-end of their natural substrates, and P. gingivalis is known to utilize dipeptides preferentially, instead of free amino acids, as the source of energy. Until now, beside DPP IV, which is a proven virulence factor, three other DPPs were reported: DPP5, DPP7 and DPP11 [67–69]. They are all serine peptidases, localized in the periplasm, but differ in their substrate specificity.

The test system of experiment [4] is putative DPP III from P. gingivalis strain ATCC 33277. The settings on record: recombinant protein of gene PGN_1645; cited from earlier work.
From the text: as §1

Experiment [5] has as its target E433A variant of PgDPP III (Porphyromonas gingivalis, UniProt Q7MX92, E433A). Kind of experiment: biochemical. Type of experiment: binding.
Another experiment concerns PgDPP III. Nature of the experiment: Substrate specificity for PgDPP III, dipeptidyl-2NA substrates. In kind it is biochemical, Porphyromonas gingivalis. Conditions: for Relative hydrolysis rate: standard colorimetric assay, 37°C, pH 8.0, 50 mM Tris-HCl (I = 0.01), 100 μM CoCl2, Arg-Arg-2NA listed as 100; for substrate preference / hydrolysis rate (in words): dipeptidyl-2NA substrates. The procedure:
DPP III activity was determined by a standard colorimetric assay described previously using Arg-Arg-2-naphthylamide (Arg2-2NA) and Arg-Arg-7-amido-4-methylcoumarin (Arg2-AMC) as substrates, at 37°C and pH 8.0, in 50 mM Tris-HCl buffer (I = 0.01) containing 100 μM CoCl2. […] The kinetic parameters were determined from the initial reaction rates, using a nonlinear regression program (GraphPad Prism version 5.04; GraphPad, La Jolla, CA, USA).
Cloning, expression, and purification of the recombinant proteins was performed as described in the Materials and methods section. Enzyme activity was assayed using a set of synthetic dipeptide-2-naphthylamide substrates as described previously. Full-length PgDPP III and the DPP III fragment (a. acids 1–679) were purified to apparent homogeneity according to SDS-PAGE, with estimated molecular weights of 102000 and 78000, respectively, which was in agreement with their predicted molecular masses (Fig 1A). We cloned and attempted to express three C-terminal fragments of different sizes. Only one (amino acids 648–886) was detected on SDS-PAGE. However, it could not be purified as all expressed protein was in insoluble inclusion bodies. This problem was not solved by attempts to yield soluble protein by refolding from inclusion bodies.

Setting [6] is: fluorimetric, 26°C, pH 8.0 Tris-HCl (ionic strength 0.01M), 100 μM CoCl2, enzyme 0.5–1 nM, mean of at least two independent experiments ± SD.
The mark [7] stands for this setting: DPP III fragment vs full length PgDPP III.
The mark [8] stands for this setting: Arg2-2NA, yeast enzyme data ref 70.

Where a SMILES comes first, the peptide text is derived from it. Where no end group is shown, it is not given here. The star is where a group is joined. AMC = Cc1cc(=O)oc2cc(N*)ccc12; βNA = c1ccc2cc(N*)ccc2c1

Consider six molecules from article PMC5708649, “A novel Porphyromonas gingivalis enzyme: An atypical dipeptidyl peptidase III with an ARM repeat domain” (PLoS ONE, 2017).

The term kcat denotes the maximal rate divided by the concentration of active sites. The kcat/Km is the turnover number divided by the Michaelis constant. As a reminder, the Km is the substrate concentration at which the rate is half of its maximum. A word on the Kd: it is the constant that tells how readily two partners part at equilibrium.

E433A variant of PgDPP III, sequence (Q7MX92 whole entry E433A): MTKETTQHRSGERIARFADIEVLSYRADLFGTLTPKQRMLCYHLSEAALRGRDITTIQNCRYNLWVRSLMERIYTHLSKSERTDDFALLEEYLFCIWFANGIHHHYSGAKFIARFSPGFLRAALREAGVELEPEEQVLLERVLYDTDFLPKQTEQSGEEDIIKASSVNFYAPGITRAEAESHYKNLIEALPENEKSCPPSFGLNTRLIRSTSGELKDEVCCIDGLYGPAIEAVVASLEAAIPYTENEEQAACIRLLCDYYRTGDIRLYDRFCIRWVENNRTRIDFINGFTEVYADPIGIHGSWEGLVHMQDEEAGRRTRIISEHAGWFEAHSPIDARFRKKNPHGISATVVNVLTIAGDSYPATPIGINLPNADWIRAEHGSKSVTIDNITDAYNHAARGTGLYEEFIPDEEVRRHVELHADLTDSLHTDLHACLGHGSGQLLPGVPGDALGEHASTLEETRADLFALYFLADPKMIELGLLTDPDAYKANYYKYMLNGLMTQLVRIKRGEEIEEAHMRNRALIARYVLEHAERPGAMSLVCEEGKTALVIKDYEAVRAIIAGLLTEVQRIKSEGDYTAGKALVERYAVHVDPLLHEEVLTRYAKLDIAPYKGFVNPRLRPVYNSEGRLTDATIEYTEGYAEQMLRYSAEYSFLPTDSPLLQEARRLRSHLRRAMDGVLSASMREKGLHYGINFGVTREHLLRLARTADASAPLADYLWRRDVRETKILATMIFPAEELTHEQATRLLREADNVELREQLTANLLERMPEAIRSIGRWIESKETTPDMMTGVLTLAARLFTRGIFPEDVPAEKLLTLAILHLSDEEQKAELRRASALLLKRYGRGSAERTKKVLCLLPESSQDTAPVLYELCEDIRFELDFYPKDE

As to `Cc1cc(=O)oc2cc(NC(=O)[C@H](CCCNC(=N)N)NC(=O)[C@@H](N)CCCNC(=N)N)ccc12` [Arg-Arg-AMC, Arg-Arg-7-amido-4-methylcoumarin] (H-Arg-Arg-{AMC}), the kcat in experiment [1] (setting [6]) is 0.29 ± 0.11 s⁻¹. In addition, the kcat/Km in experiment [1] (26°C) turned out to be 113280 M⁻¹ s⁻¹. For the same molecule, the “kcat/Km of PgDPP III, fold lower than human DPP III” value in experiment [1] amounted to 26 fold. For the same molecule, in experiment [2] (setting [7]), the “Km increase when C-terminal domain was removed” value came out at 4 fold, the “kcat reduction when C-terminal domain was removed” value is recorded as 120 fold and the “reduction in catalytic efficiency when C-terminal domain was removed” value is on record as 470 fold. For the same molecule, in experiment [2], the kcat/Km turned out to be 241 M⁻¹ s⁻¹, the Km was 9.97 ± 0.44 µM and the kcat came to 0.0024 ± 0.0014 s⁻¹. Moreover, the “hydrolysis by mutant cells (in words)” value in experiment [3] is listed as “defects in Arg-Arg-AMC hydrolysis”. The “activity among dipeptidyl-AMC substrates (in words)” value in experiment [4] was “highest activity”.
Regarding `CC[C@H](C)[C@H](NC(=O)[C@H](Cc1ccc(O)cc1)NC(=O)[C@@H](NC(=O)[C@H](CCCNC(=N)N)NC(=O)[C@@H](N)CC(=O)O)C(C)C)C(=O)N[C@@H](Cc1cnc[nH]1)C(=O)N1CCC[C@H]1C(=O)N[C@@H](Cc1ccccc1)C(=O)O` [angiotensin II], in experiment [5], the Kd was found to be 0.9 ± 0.12 µM.
On the same count and under the same terms, for VVYPW [tynorphin] the value was 7.3 ± 0.83 µM.
Molecule `NC(N)=NCCCC(NC(=O)c1ccccc1)C(=O)Nc1ccc2ccccc2c1` (stereo not shown) [BANA] displayed a Relative hydrolysis rate in the experiment on PgDPP III of 0%.
In experiment [5], `CC[C@H](C)[C@H](N)C(=O)N[C@H](C(=O)N[C@@H](Cc1ccc(O)cc1)C(=O)N1CCC[C@H]1C(=O)N[C@@H](Cc1c[nH]c2ccccc12)C(=O)O)C(C)C` [IVYPW] showed a Kd of 9.35 ± 0.73 µM.
As for `N=C(N)NCCC[C@H](NC(=O)[C@@H](N)CCCNC(=N)N)C(=O)Nc1ccc2ccccc2c1` [Arg-Arg-2NA, Arg-Arg-2-naphthylamide] (H-Arg-Arg-βNA), in experiment [1] (setting [8]), the “Km decrease, PgDPP III vs yeast counterpart” value stood at 12 fold; the “kcat increase, PgDPP III vs yeast counterpart” value was 4.2 fold; the “kcat/Km of full-length PgDPP III, fold higher than yeast counterpart” value is reported as 50 fold. In addition, the “Km and kcat compared to B. thetaiotaomicron DPP III (in words)” value in experiment [1] (BtDPP III data ref 24) was “similarities in Km and kcat values”. Also, in experiment [1] (setting [6]), the Km came to 0.97 ± 0.16 µM and the kcat came to 0.75 ± 0.13 s⁻¹. Moreover, in experiment [1] (full length PgDPP III), the “catalytic efficiency, Arg-Arg-2NA fold higher than Arg-Arg-AMC” value worked out at 6.8 fold and the “kcat, Arg-Arg-2NA fold higher than Arg-Arg-AMC” value is reported as 2.6 fold. For the same molecule, the kcat/Km in experiment [1] (26°C) came out at 773200 M⁻¹ s⁻¹. For the same molecule, the “kcat/Km of PgDPP III, fold lower than human DPP III” value in experiment [1] came to 12 fold. Further, in experiment [2] (setting [7]), the “Km increase when C-terminal domain was removed” value was 4 fold and the “reduction in catalytic efficiency when C-terminal domain was removed” value came out at 1050 fold. Also, in experiment [2], the kcat/Km was determined as 732 M⁻¹ s⁻¹, the Km amounted to 4.37 ± 0.42 µM and the kcat is 0.0032 ± 0.0005 s⁻¹. The “specific activity of DPP III fragment, fold lower than full-length protein” value in experiment [2] (hydrolysis of Arg2-2NA, vs full-length PgDPP III) is listed as 250 fold. Further, the “substrate preference / hydrolysis rate (in words)” value with PgDPP III (listed as Arg2-2NA) was “preference for Arg2-2NA”. Further, the “substrate preference / hydrolysis rate (in words)” value in the experiment on PgDPP III (listed as diarginyl-2NA) is given as “PgDPP III prefers diarginyl-2NA”. For the same molecule, the Relative hydrolysis rate in the experiment with PgDPP III is given as 100%.
